Entries after “also recorded” stand apart in the source; their conditions may differ. Starred links: 1 amine or outer side, 2 acyl side, 3 side chain; linkers in the order of their positions; H or OH if unused. Non-standard residues stand in square brackets, D forms with d. Residues, ends and D or L forms follow the SMILES beside them. *: point of attachment. Sta = CC(C)C[C@H](N)[C@@H](O)CC(=O)O; Glutaryl = O=C(CCCC(=O)[*:2])[*:1]; AMC = Cc1cc(=O)oc2cc(N*)ccc12; Suc = O=C(CCC(=O)[*:2])[*:1]; Isovaleryl = CC(C)CC(=O)*; Boc = CC(C)(C)OC(=O)*
How the values were obtained:
[1] = tested on: human tryptase-like protein; test: Effects of inhibitors on the trypsin-like activity; type: biochemical; settings: 10 µM inhibitor; for Inhibition (%) / Activity: substrate Boc-Gln-Gly-Arg-MCA; for Activity: control 843.1
Description: (§1) Enzyme activity of the human tryptase-like protein during the course of purification or after purification was measured as follows. The enzyme sample was added to 0.1 M Tris-HCl buffer (pH 7.8) containing 25 mM calcium chloride and 100 µM of fluorogenic substrate. The fluorescence was measured with excitation and emmision wavelength of 380 nm and 460 nm, respectively.
Effects of inhibitors on the trypsin-like activity of the human tryptase-like protein was examined using Boc-Gln-Gly-Arg-MCA as substrate.

[2] = tested on: human tryptase-like protein; test: Enzyme activity with fluorogenic substrates (substrate specificity); type: biochemical; settings: for Activity: Substrate 100 µM, 0.1 M Tris-HCl pH 7.8, 25 mM calcium chloride; for %: activity relative to Boc-Gln-Gly-Arg-MCA (100), substrate 100 µM; for hydrolysis by human tryptase-like protein: trypsin-like or chymotrypsin-like activity
Description: as §1, with “respectively. Effects of inhibitors on the enzyme activity were examined by adding 10 µM each of inhibitor to the reaction solution described above.” for “respectively.”

Row | Activity [2] | % [2] | Molecule | Inhibition (%) [1] | Activity [1] | inhibition of trypsin-like activity [1] | hydrolysis by human tryptase-like protein [2]
1 | – | – | Cc1ccc(S(=O)(=O)N[C@@H](CCCCN)C(=O)CCl)cc1 [TLCK, Nα-p-tosyl-L-lysine chloromethyl ketone] | 18% | 691.3 µU/ml | – | –
2 | – | – | CC(C)C[C@H](NC(=O)[C@@H](NC(=O)N[C@@H](Cc1ccccc1)C(=O)O)[C@@H]1CCN=C(N)N1)C(=O)N[C@H](C=O)Cc1ccccc1 [Chymostatin] | 47% | 443.8 µU/ml | inhibited | –
3 | 177.5 µU/ml | 24% | Cc1cc(=O)oc2cc(NC(=O)[C@H](CCCNC(=N)N)NC(=O)[C@H](CO)NC(=O)[C@H](Cc3ccccc3)NC(=O)OC(C)(C)C)ccc12 [Boc-Phe-Ser-Arg-MCA] (Boc-Phe-Ser-Arg-{AMC}) | – | – | – | –
4 | 110.9 µU/ml | 15% | Cc1cc(=O)oc2cc(NC(=O)[C@H](CCCNC(=N)N)NC(=O)[C@H](CCCNC(=N)N)NC(=O)[C@H](CC(C)C)NC(=O)OC(C)(C)C)ccc12 [Boc-Leu-Arg-Arg-MCA] (Boc-Leu-Arg-Arg-{AMC}) | – | – | – | –
5 | 332.8 µU/ml | 44% | Cc1cc(=O)oc2cc(NC(=O)[C@H](CCCNC(=N)N)NC(=O)CNC(=O)CCCC(=O)O)ccc12 [Glt-Gly-Arg-MCA] (Glutaryl-Gly-Arg-{AMC}) | – | – | – | –
6 | 177.5 µU/ml | 24% | Cc1cc(=O)oc2cc(NC(=O)[C@H](CCCNC(=N)N)NC(=O)[C@H](CCCNC(=N)N)NC(=O)[C@H](CCC(N)=O)NC(=O)OC(C)(C)C)ccc12 [Boc-Gln-Arg-Arg-MCA] (Boc-Gln-Arg-Arg-{AMC}) | – | – | – | –
7 | 244.1 µU/ml | 32% | Cc1cc(=O)oc2cc(NC(=O)[C@H](Cc3ccc(O)cc3)NC(=O)[C@@H](NC(=O)[C@H](CC(C)C)NC(=O)[C@H](CC(C)C)NC(=O)CCC(=O)O)C(C)C)ccc12 [Suc-Leu-Leu-Val-Tyr-MCA] (Suc-LLVY-{AMC}) | – | – | – | cleaves; also recorded: hydrolized most rapidly
8 | 155.3 µU/ml | 21% | Cc1cc(=O)oc2cc(NC(=O)[C@H](CCCNC(=N)N)NC(=O)[C@H](Cc3ccccc3)NC(=O)[C@@H]3CCCN3)ccc12 [Pro-Phe-Arg-MCA] (H-Pro-Phe-Arg-{AMC}) | – | – | – | –
9 | – | – | N-tosyl-L-phenylalanine chloromethyl ketone [TPCK] | 16% | 708.2 µU/ml | – | –
10 | – | – | CC(C)CCNC(=O)[C@H](CC(C)C)NC(=O)[C@H]1O[C@@H]1C(=O)O [E-64c] | 11% | 754.4 µU/ml | – | –
11 | – | – | N=C(N)c1ccccc1 [Benzamidine] | 3% | 817.8 µU/ml | – | –
12 | 110.9 µU/ml | 15% | Cc1cc(=O)oc2cc(NC(=O)[C@H](CCCNC(=N)N)NC(=O)[C@@H](NC(=O)[C@H](CC(C)C)NC(=O)OC(C)(C)C)[C@@H](C)O)ccc12 [Boc-Leu-Thr-Arg-MCA] (Boc-Leu-Thr-Arg-{AMC}) | – | – | – | –
13 | – | – | CC(C)CC(=O)N[C@H](C(=O)N[C@H](C(=O)N[C@@H](CC(C)C)[C@@H](O)CC(=O)N[C@@H](C)C(=O)N[C@@H](CC(C)C)[C@@H](O)CC(=O)O)C(C)C)C(C)C [Pepstatin] (Isovaleryl-VV[Sta]A[Sta]-OH) | 0% | 845.0 µU/ml | – | –
14 | – | – | CC(C)C[C@H](NP(=O)(O)O[C@@H]1O[C@@H](C)[C@H](O)[C@@H](O)[C@H]1O)C(=O)N[C@@H](Cc1c[nH]c2ccccc12)C(=O)O [Phosphoramidone] | 3% | 820.9 µU/ml | – | –
15 | – | – | CC(C)C[C@H](NC(=O)N[C@H](C(=O)N[C@@H](CCC(N)=O)C(=O)N[C@@H](C)C=O)[C@@H]1CCNC(=N)N1)C(=O)O [Elastatinal] | 16% | 710.0 µU/ml | – | –
16 | 177.5 µU/ml | 24% | Cc1cc(=O)oc2cc(NC(=O)[C@H](CCCNC(=N)N)NC(=O)[C@H](CCCCN)NC(=O)CNC(=O)OC(C)(C)C)ccc12 [Boc-Gly-Lys-Arg-MCA] (Boc-Gly-Lys-Arg-{AMC}) | – | – | – | –
17 | – | – | CC(C)C[C@@H](N)[C@H](O)C(=O)N[C@H](C(=O)N[C@H](C(=O)N[C@@H](CC(=O)O)C(=O)O)C(C)C)C(C)C [Amastatin] | 9% | 767.2 µU/ml | – | –
18 | 66.6 µU/ml | 9% | Cc1cc(=O)oc2cc(NC(=O)[C@H](CCCNC(=N)N)NC(=O)[C@@H]3CCCN3C(=O)[C@@H](NC(=O)OC(C)(C)C)C(C)C)ccc12 [Boc-Val-Pro-Arg-MCA] (Boc-Val-Pro-Arg-{AMC}) | – | – | – | –
19 | – | – | CC(=O)N[C@@H](CC(C)C)C(=O)N[C@@H](CC(C)C)C(=O)N[C@H](C=O)CCCNC(=N)N [Leupeptin] | 87% | 110.9 µU/ml | inhibited; also recorded: strongly inhibited | –
20 | 44.4 µU/ml | 6% | Cc1cc(=O)oc2cc(NC(=O)[C@H](CCCNC(=N)N)NC(=O)[C@H](CCCNC(=N)N)NC(=O)CNC(=O)OC(C)(C)C)ccc12 [Boc-Gly-Arg-Arg-MCA] | – | – | – | –
21 | 754.4 µU/ml | 100% | Cc1cc(=O)oc2cc(NC(=O)[C@H](CCCNC(=N)N)NC(=O)CNC(=O)[C@H](CCC(N)=O)NC(=O)OC(C)(C)C)ccc12 [Boc-Gln-Gly-Arg-MCA] (Boc-Gln-Gly-Arg-{AMC}) | – | – | – | cleaves; also recorded: hydrolyzed most rapidly
22 | 221.9 µU/ml | 29% | Cc1cc(=O)oc2cc(NC(=O)[C@H](CCCCN)NC(=O)[C@H](CCCCN)NC(=O)[C@H](CCC(=O)O)NC(=O)OC(C)(C)C)ccc12 [Boc-Glu-Lys-Lys-MCA] (Boc-Glu-Lys-Lys-{AMC}) | – | – | – | –
23 | 355.0 µU/ml | 47% | CC[C@H](C)[C@H](NC(=O)OC(C)(C)C)C(=O)N[C@@H](CCC(=O)O)C(=O)NCC(=O)N[C@@H](CCCNC(=N)N)C(=O)Nc1ccc2c(C)cc(=O)oc2c1 [Boc-Ile-Glu-Gly-Arg-MCA] (Boc-IEGR-{AMC}) | – | – | – | –
24 | 199.7 µU/ml | 26% | Cc1cc(=O)oc2cc(NC(=O)[C@H](CCCNC(=N)N)NC(=O)[C@@H]3CCCN3C(=O)CNC(=O)[C@H](C)NC(=O)OC(C)(C)C)ccc12 [Boc-Ala-Gly-Pro-Arg-MCA] (Boc-AGPR-{AMC}) | – | – | – | –
25 | 110.9 µU/ml | 15% | Cc1cc(=O)oc2cc(NC(=O)[C@H](Cc3ccccc3)NC(=O)[C@@H]3CCCN3C(=O)[C@H](C)NC(=O)[C@H](C)NC(=O)CCC(=O)O)ccc12 [Suc-Ala-Ala-Pro-Phe-MCA] (Suc-AAPF-{AMC}) | – | – | – | –
26 | – | – | O=S(=O)(F)Cc1ccccc1 [PMSF, phenylmethylsulfonyl fluoride] | 13% | 732.2 µU/ml | – | –
27 | 532.4 µU/ml | 71% | Cc1cc(=O)oc2cc(NC(=O)[C@H](CCCNC(=N)N)NC(=O)[C@H](C)NC(=O)[C@H](CCC(N)=O)NC(=O)OC(C)(C)C)ccc12 [Boc-Gln-Ala-Arg-MCA] (Boc-Gln-Ala-Arg-{AMC}) | – | – | – | –
28 | – | – | CC(C)C[C@H](NC(=O)[C@@H](O)[C@H](N)Cc1ccccc1)C(=O)O [Bestatin] | 0% | 843.0 µU/ml | – | –

— patent publication EP0419292A1, “Human tryptase-like protein” (TAISHO PHARMACEUTICAL CO. LTD, priority 1989, dated 1991)
